Measurements from PubChem BioAssay (NCI).
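Growth conditions: 96-well plates. Treatment: test compound, 48 hours, 5 concentrations. Analysis: linear interpolation between bracketing concentrations; unreached endpoints set to highest concentration. At the GI50, growth is halved. TGI is the concentration that stops growth completely.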

Legend:
Assay in all cases: DTP human tumour cell line panel, 48 h
KM12 colon = system: KM12 colon
SK-MEL-5 melanoma = system: SK-MEL-5 melanoma
MCF7 breast = system: MCF7 breast
NCI/ADR-RES ovarian = system: NCI/ADR-RES ovarian
HL-60(TB) leukemia = system: HL-60(TB) leukemia
OVCAR-3 ovarian = system: OVCAR-3 ovarian
PC-3 prostate = system: PC-3 prostate
SK-MEL-2 melanoma = system: SK-MEL-2 melanoma
A549 NSCLC = system: A549 NSCLC
UACC-62 melanoma = system: UACC-62 melanoma
HCT-116 colon = system: HCT-116 colon
TK-10 renal = system: TK-10 renal
UACC-257 melanoma = system: UACC-257 melanoma
MOLT-4 leukemia = system: MOLT-4 leukemia
NCI-H226 lung = system: NCI-H226 lung
HOP-92 NSCLC = system: HOP-92 NSCLC
SF-295 CNS = system: SF-295 CNS
MDA-MB-231 breast = system: MDA-MB-231 breast
SN12C renal = system: SN12C renal
OVCAR-4 ovarian = system: OVCAR-4 ovarian
SF-539 CNS = system: SF-539 CNS
SF-268 CNS = system: SF-268 CNS
COLO 205 colon = system: COLO 205 colon
T-47D breast = system: T-47D breast
EKVX NSCLC = system: EKVX NSCLC
BT-549 breast = system: BT-549 breast
HOP-62 NSCLC = system: HOP-62 NSCLC
SR leukemia = system: SR leukemia
SK-OV-3 ovarian = system: SK-OV-3 ovarian
HS 578T breast = system: HS 578T breast
LOX IMVI melanoma = system: LOX IMVI melanoma
OVCAR-5 ovarian = system: OVCAR-5 ovarian
NCI-H522 lung = system: NCI-H522 lung
HT29 colon = system: HT29 colon
NCI-H460 lung = system: NCI-H460 lung
IGROV1 ovarian = system: IGROV1 ovarian
M14 melanoma = system: M14 melanoma
OVCAR-8 ovarian = system: OVCAR-8 ovarian
MALME-3M melanoma = system: MALME-3M melanoma
K-562 leukemia = system: K-562 leukemia
A498 renal = system: A498 renal
SW-620 colon = system: SW-620 colon
RPMI-8226 leukemia = system: RPMI-8226 leukemia
ACHN renal = system: ACHN renal
HCC-2998 colon = system: HCC-2998 colon
786-0 renal = system: 786-0 renal
HCT-15 colon = system: HCT-15 colon
UO-31 renal = system: UO-31 renal
SNB-75 CNS = system: SNB-75 CNS
DU-145 prostate = system: DU-145 prostate
CAKI-1 renal = system: CAKI-1 renal
CCRF-CEM leukemia = system: CCRF-CEM leukemia
NCI-H23 lung = system: NCI-H23 lung
U251 CNS = system: U251 CNS
SNB-19 CNS = system: SNB-19 CNS
RXF 393 renal = system: RXF 393 renal

CCO/C=N/C1=C(C#N)C(c2ccc(OC)cc2)c2sc3c(F)cccc3c2O1 (configuration not stated)
GI50 (KM12 colon): 2.52 µM
TGI (KM12 colon): 72 µM
GI50 (SK-MEL-5 melanoma): 3.24 µM
TGI (SK-MEL-5 melanoma): 15.7 µM
GI50 (MCF7 breast): 1.44 µM
TGI (MCF7 breast): 50.9 µM
GI50 (NCI/ADR-RES ovarian): 1.25 µM
TGI (NCI/ADR-RES ovarian): 5.03 µM
GI50 (HL-60(TB) leukemia): 2 µM
TGI (HL-60(TB) leukemia): 5.5 µM
GI50 (OVCAR-3 ovarian): 2.2 µM
TGI (OVCAR-3 ovarian): 9.7 µM
GI50 (PC-3 prostate): 2.86 µM
TGI (PC-3 prostate): > 100 µM
GI50 (SK-MEL-2 melanoma): 3.8 µM
TGI (SK-MEL-2 melanoma): 78.3 µM
GI50 (A549 NSCLC): 2.22 µM
TGI (A549 NSCLC): > 100 µM
GI50 (UACC-62 melanoma): 1.84 µM
TGI (UACC-62 melanoma): > 100 µM
GI50 (HCT-116 colon): 2.02 µM
TGI (HCT-116 colon): > 100 µM
GI50 (TK-10 renal): 6.74 µM
TGI (TK-10 renal): > 100 µM
GI50 (UACC-257 melanoma): 14.8 µM
TGI (UACC-257 melanoma): > 100 µM
GI50 (MOLT-4 leukemia): 2.8 µM
TGI (MOLT-4 leukemia): 13.5 µM
GI50 (NCI-H226 lung): 2.89 µM
TGI (NCI-H226 lung): 42.1 µM
GI50 (HOP-92 NSCLC): 3.21 µM
TGI (HOP-92 NSCLC): 43.6 µM
GI50 (SF-295 CNS): 4.44 µM
TGI (SF-295 CNS): 62.3 µM
GI50 (MDA-MB-231 breast): 3.87 µM
TGI (MDA-MB-231 breast): 30.7 µM
GI50 (SN12C renal): 3.75 µM
TGI (SN12C renal): 55 µM
GI50 (OVCAR-4 ovarian): 5.59 µM
TGI (OVCAR-4 ovarian): > 100 µM
GI50 (SF-539 CNS): 2.18 µM
TGI (SF-539 CNS): 6.28 µM
GI50 (SF-268 CNS): 4.31 µM
TGI (SF-268 CNS): > 100 µM
GI50 (COLO 205 colon): 3.33 µM
TGI (COLO 205 colon): 15 µM
GI50 (T-47D breast): 3.51 µM
TGI (T-47D breast): > 100 µM
GI50 (EKVX NSCLC): 7.12 µM
TGI (EKVX NSCLC): > 100 µM
GI50 (BT-549 breast): 7.17 µM
TGI (BT-549 breast): > 100 µM
GI50 (HOP-62 NSCLC): 2.9 µM
TGI (HOP-62 NSCLC): 47.5 µM
GI50 (SR leukemia): 1.04 µM
TGI (SR leukemia): 17.5 µM
GI50 (SK-OV-3 ovarian): 4.67 µM
TGI (SK-OV-3 ovarian): > 100 µM
GI50 (HS 578T breast): 2.11 µM
TGI (HS 578T breast): 7.93 µM
GI50 (LOX IMVI melanoma): 3.08 µM
TGI (LOX IMVI melanoma): 12.4 µM
GI50 (OVCAR-5 ovarian): 6.8 µM
TGI (OVCAR-5 ovarian): 76.3 µM
GI50 (NCI-H522 lung): 0.569 µM
TGI (NCI-H522 lung): 3.84 µM
GI50 (HT29 colon): 3.23 µM
TGI (HT29 colon): 16.6 µM
GI50 (NCI-H460 lung): 2.82 µM
TGI (NCI-H460 lung): 13.5 µM
GI50 (IGROV1 ovarian): 2.73 µM
TGI (IGROV1 ovarian): > 100 µM
GI50 (M14 melanoma): 1.7 µM
TGI (M14 melanoma): > 100 µM
GI50 (OVCAR-8 ovarian): 4.06 µM
TGI (OVCAR-8 ovarian): > 100 µM
GI50 (MALME-3M melanoma): 11.3 µM
TGI (MALME-3M melanoma): > 100 µM
GI50 (K-562 leukemia): 0.537 µM
TGI (K-562 leukemia): > 100 µM
GI50 (A498 renal): 2.18 µM
TGI (A498 renal): 7.8 µM
GI50 (SW-620 colon): 2.2 µM
TGI (SW-620 colon): > 100 µM
GI50 (RPMI-8226 leukemia): 3.26 µM
TGI (RPMI-8226 leukemia): 16.3 µM
GI50 (ACHN renal): 5.57 µM
TGI (ACHN renal): > 100 µM
GI50 (HCC-2998 colon): 5.12 µM
TGI (HCC-2998 colon): 32.6 µM
GI50 (786-0 renal): 4.85 µM
TGI (786-0 renal): 68.9 µM
GI50 (HCT-15 colon): 1.67 µM
TGI (HCT-15 colon): 26.7 µM
GI50 (UO-31 renal): 4.03 µM
TGI (UO-31 renal): > 100 µM
GI50 (SNB-75 CNS): 1.66 µM
TGI (SNB-75 CNS): 5.67 µM
GI50 (DU-145 prostate): 3.57 µM
TGI (DU-145 prostate): 57.2 µM
GI50 (CAKI-1 renal): 3.3 µM
TGI (CAKI-1 renal): > 100 µM
GI50 (CCRF-CEM leukemia): 2.69 µM
TGI (CCRF-CEM leukemia): 28.7 µM
GI50 (NCI-H23 lung): 3.29 µM
TGI (NCI-H23 lung): > 100 µM
GI50 (U251 CNS): 3.48 µM
TGI (U251 CNS): 19.7 µM
GI50 (SNB-19 CNS): 4.02 µM
TGI (SNB-19 CNS): > 100 µM
GI50 (RXF 393 renal): 2 µM
TGI (RXF 393 renal): 16.5 µM
